Measured values published in US11324725B2, “Compositions and methods for the inhibition of pruritus” (The United States of America, as represented by the …, priority 2017, dated 2022).

Columns and labels:
[1] = molecular target: T1, hNpr1 (Homo sapiens, UniProt P16066); experiment: GloSensor assay in 96-well format, HEK-hNpr1-cGMP-sensor cells; type: cell-based; conditions: for Imax [%] (mean ± SEM), GloSensor 96-well format / IC50: 60 pM hNppa 5 minutes after compound; for IC50: read-out: IC50 [μM] (mean ± SEM), GloSensor 96-well format; for Basal (unstimulated) hNpr1 activity: HEK-hNpr1-cGMP-sensor cells, no agonist; for Ki: calculated with Cheng-Prusoff equation from Table 3, read-out: Ki hNpr1 GloSensor™ [μM] (mean ± SEM)
T1 sequence (P16066 33-1061): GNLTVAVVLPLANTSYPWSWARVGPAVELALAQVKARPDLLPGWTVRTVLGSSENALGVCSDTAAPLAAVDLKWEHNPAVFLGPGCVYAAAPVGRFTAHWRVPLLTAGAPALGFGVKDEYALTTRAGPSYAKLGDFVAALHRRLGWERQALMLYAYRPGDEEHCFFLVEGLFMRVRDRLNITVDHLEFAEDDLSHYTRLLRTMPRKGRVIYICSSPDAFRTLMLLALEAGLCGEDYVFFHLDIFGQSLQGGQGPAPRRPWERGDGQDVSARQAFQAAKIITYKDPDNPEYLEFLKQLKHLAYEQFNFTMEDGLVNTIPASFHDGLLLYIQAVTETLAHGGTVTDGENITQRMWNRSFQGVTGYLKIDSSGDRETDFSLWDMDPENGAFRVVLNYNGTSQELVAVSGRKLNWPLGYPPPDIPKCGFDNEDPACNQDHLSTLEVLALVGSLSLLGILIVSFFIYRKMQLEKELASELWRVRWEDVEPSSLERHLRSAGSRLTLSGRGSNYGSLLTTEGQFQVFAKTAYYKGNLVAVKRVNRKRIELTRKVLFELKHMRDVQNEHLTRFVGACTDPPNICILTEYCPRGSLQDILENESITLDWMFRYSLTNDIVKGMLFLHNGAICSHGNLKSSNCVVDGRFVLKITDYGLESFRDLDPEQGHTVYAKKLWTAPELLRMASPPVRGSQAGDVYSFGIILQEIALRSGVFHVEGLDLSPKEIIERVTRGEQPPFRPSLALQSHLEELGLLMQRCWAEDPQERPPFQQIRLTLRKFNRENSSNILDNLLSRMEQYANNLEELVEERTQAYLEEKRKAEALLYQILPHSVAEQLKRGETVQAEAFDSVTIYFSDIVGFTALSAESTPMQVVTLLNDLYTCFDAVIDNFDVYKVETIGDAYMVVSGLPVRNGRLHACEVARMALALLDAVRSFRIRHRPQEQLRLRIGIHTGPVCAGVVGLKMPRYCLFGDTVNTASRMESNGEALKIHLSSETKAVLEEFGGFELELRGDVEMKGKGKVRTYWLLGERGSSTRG
Protocol: Before the measurement (24 hours in advance), 3×10^4 cells were seeded into white 96-well plates (PerkinElmer, Waltham, Mass.), coated with 0.1% poly(D-lysine), and assays conducted as recommended by the manufacturer (Promega). Medium was aspirated and cells were loaded for two hours at room temperature with 2% GoSensor™ reagent diluted in CO2-independent media (ThermoFisher) supplemented with 2 mM L-glutamine and 10% FBS (assay medium). Luminescence was measured on a BioTek Synergy™ NEO (Winooski, Vt.) plate reader at room temperature. After a baseline measurement of 3-5 minutes, assay medium as a control or assay medium with agonist was manually added, and luminescence was measured for 30 minutes at ˜ 1/60 Hz. For compounds tested for Npr1 and Npr2 inhibition, the compounds were added after baseline measurements, and luminescence was read for 5 minutes before addition of agonist. Luminescence was then normalized to baseline measurements and plotted against the time. Ligand-induced changes of cGMP production were quantified by determining the area under the curve. To determine efficacy and potency of agonists, ligand-induced changes were normalized to medium only addition and plotted against the ligand concentration. […] To quantify […] of compounds, compound-induced changes of agonist-induced cGMP production were normalized to vehicle controls, plotted against compound concentration, and fit with a four-parameter logistic regression. Effects of A-71915 on basal mNpr1 activity were fitted with a bell-shaped regression (equation indicated below).
Additional screens of the fifteen candidates corroborated hNpr1 inhibition. In particular, HEK-hNpr1-cGMP-sensor cells were seeded in 96-wells and stimulated with 60 pM hNppa 5 minutes after addition of candidate compounds or A-71915 and luminescence was measured for 30 minutes. Inhibitors were titrated to calculate apparent potency (IC50) and efficacy (Imax) of inhibition of hNppa-induced cGMP production.

[2] = molecular target: T1, hNpr1; experiment: Cell-free hNpr1 membrane cyclase assay (cGMP ELISA); type: biochemical; conditions: for Ki: calculated with Cheng-Prusoff equation from Table 4, read-out: Ki hNpr1 cyclase assay [μM] (mean ± SEM)
[3] = Table 1, biochemical assay, read-out: IC50 biochem assay
[4] = membranes of HEK-hNpr1-cGMP-sensor cells, hNppa-stimulated
[5] = membranes of HEK-hNpr1-cGMP-sensor cells, hNppa-stimulated, read-out: IC50 [μM] (mean ± SEM), membrane cyclase assay

Row | SMILES | Imax [%] (mean ± SEM), GloSensor 96-well format [1] | IC50 [1] | Effect on hNppa concentration-response at fixed antagonist concentration ([1]; 5 μM antagonist, increasing hNppa, GloSensor and membrane cyclase assays (FIGS. 5B-C)) | Basal (unstimulated) hNpr1 activity [1] | Ki [1] | IC50 [2, 3] | Ki [2] | Imax [%] (mean ± SEM), membrane cyclase assay [2, 4] | IC50 [2, 5]
1 | Cc1noc(C)c1-c1cc(-c2ccccc2Oc2ccccc2)cn2cncc12 [JS-5, 3,5-dimethyl-4-(6-(2-phenoxyphenyl)imidazo[1,5-a]pyridin-8-yl)isoxazole] | −99.9 ± 0.1% | 7.4 ± 0.3 µM | reduced maximal responses even at extremely high hNppa concentrations | dose dependently inhibited | 1.18 ± 0.048 µM | 0.141 µM | 0.02 ± 0.02 µM | −99.8 ± 0.1% | 0.1 ± 0.1 µM
2 | Cc1cc(CNC(=O)c2ccc3c(c2)n(CC2CC2)c(=O)n3C2CCCCC2)on1 [JS-11, 1-cyclohexyl-3-(cyclopropylmethyl)-N-((3-methylisoxazol-5-yl)methyl)-2-oxo-2,3-dihydro-1H-benzo[d]imidazole-5-carboxamide] | −96.3 ± 1.3% | 1.9 ± 0.8 µM |  | dose dependently inhibited | 0.3 ± 0.134 µM | 1.14 µM | 0.21 ± 0.008 µM | −99.7 ± 0.2% | 1.4 ± 0.1 µM
3 | COc1ccccc1-c1n[nH]c2ncc(C(=O)NCc3cccnc3)nc12 [JS-6, 3-(2-methoxyphenyl)-N-(pyridin-3-ylmethyl)-1H-pyrazolo[3,4-b]pyrazine-5-carboxamide] | −94.2 ± 5.3% | 1.9 ± 0.1 µM |  |  | 0.31 ± 0.023 µM | 0.766 µM | 0.11 ± 0.275 µM | −99.4 ± 0.5% | 0.8 ± 1.9 µM
4 | Cc1nn2c(c1-c1ccccc1OCc1ccccc1)N(C(=O)Cc1ccccn1)CCC2 [JS-9, 1-(3-(2-(benzyloxy)phenyl)-2-methyl-6,7-dihydropyrazolo[1,5-a]pyrimidin-4(5H)-yl)-2-(pyridin-2-yl)ethan-1-one] | −93.4 ± 6.4% | 3.1 ± 1.4 µM |  |  | 0.49 ± 0.215 µM | 2.17 µM | 0.32 ± 0.262 µM | −95.3 ± 4.5% | 2.2 ± 1.8 µM
5 | COc1cc(CN2CCC(C)(NC(C)=O)CC2)cc(-c2ccncc2)c1 [JS-4, N-(1-(3-methoxy-5-(pyridin-4-yl)benzyl)-4-methylpiperidin-4-yl)acetamide] | −95.5 ± 1.2% | 1.1 ± 0.01 µM |  |  | 0.18 ± 0.002 µM | 2.2 µM | 0.41 ± 0.006 µM | −96.1 ± 3.7% | 2.8 ± 0.04 µM
6 | CCC(CC)c1cc([C@H]2CN3CC[C@H]2C[C@@H]3CNS(=O)(=O)c2cccs2)nc(-c2ccncc2)n1 [JS-3, N-(((2R,4S,5R)-5-(6-(pentan-3-yl)-2-(pyridin-4-yl)pyrimidin-4-yl)quinuclidin-2-yl)methyl)thiophene-2-sulfonamide] | −99.4 ± 0.6% | 3.1 ± 0.6 µM |  |  | 0.5 ± 0.102 µM | 3.98 µM | 0.58 ± 0.179 µM | −98.2 ± 1.8% | 4 ± 1.2 µM
